Data as given in patent US20260083865A1, “PROSTATE SPECIFIC MEMBRANE ANTIGEN (PSMA) LIGANDS AND USE THEREOF” (priority 2022, published 2026).
Where two headings read alike, the source gives them in different places. One block for each molecule: values may come before it. Numbered stars: 1 amine (or outer) side, 2 acyl side, 3 side chain; on linkers, the order of the positions; unused ones are H or OH. Bridge positions count the residues as written; N and C are the ends. Square brackets hold non-standard residues; d marks the D form. Peptide text beside a SMILES is read from it. * marks the point of attachment. X7 = O=C(O)CN1CCN(CC(=O)O)CCN(CC(=O)NC2CCN(CC(=O)*)CC2)CCN(CC(=O)O)CC1; X3 = O=C(O)CN1CCN(CC(=O)O)CCN(CC(=O)NCCCOCCOCCOCCCN*)CCN(CC(=O)O)CC1; DOTA = O=C(O)CN1CCN(CC(=O)O)CCN(CC(=O)*)CCN(CC(=O)O)CC1; Phe(3-CN) = N#Cc1cccc(C[C@H](N)C(=O)O)c1; Phe(4-Cl) = N[C@@H](Cc1ccc(Cl)cc1)C(=O)O; Arg(Me) = CNC(=N)NCCC[C@H](N)C(=O)O; NMeR = CN[C@@H](CCCNC(=N)N)C(=O)O; X4 = O=C(CN1CCC(N[*:1])CC1)[*:2]; X1 = O=C(CC1CCN([*:1])CC1)[*:2]; Lys(Me) = CNCCCC[C@H](N)C(=O)O; NMeN = CN[C@@H](CC(N)=O)C(=O)O; Suc = O=C(CCC(=O)[*:2])[*:1]; Tle = CC(C)(C)[C@H](N)C(=O)O; Nle = CCCC[C@H](N)C(=O)O; Aib = CC(C)(N)C(=O)O

Columns and labels:
[1] = molecular target: T1, Fc-fusion protein of human PSMA (hPSMA-Fc) (Homo sapiens, UniProt Q04609); assay: Surface plasmon resonance assay (Biacore T200, single cycle kinetic); format: binding; conditions: read-out: pKD CAT (converted)
T1 construct: purchased Acro Biosystems PSA-H5264
T1 sequence (Q04609 44-750 limits assumed): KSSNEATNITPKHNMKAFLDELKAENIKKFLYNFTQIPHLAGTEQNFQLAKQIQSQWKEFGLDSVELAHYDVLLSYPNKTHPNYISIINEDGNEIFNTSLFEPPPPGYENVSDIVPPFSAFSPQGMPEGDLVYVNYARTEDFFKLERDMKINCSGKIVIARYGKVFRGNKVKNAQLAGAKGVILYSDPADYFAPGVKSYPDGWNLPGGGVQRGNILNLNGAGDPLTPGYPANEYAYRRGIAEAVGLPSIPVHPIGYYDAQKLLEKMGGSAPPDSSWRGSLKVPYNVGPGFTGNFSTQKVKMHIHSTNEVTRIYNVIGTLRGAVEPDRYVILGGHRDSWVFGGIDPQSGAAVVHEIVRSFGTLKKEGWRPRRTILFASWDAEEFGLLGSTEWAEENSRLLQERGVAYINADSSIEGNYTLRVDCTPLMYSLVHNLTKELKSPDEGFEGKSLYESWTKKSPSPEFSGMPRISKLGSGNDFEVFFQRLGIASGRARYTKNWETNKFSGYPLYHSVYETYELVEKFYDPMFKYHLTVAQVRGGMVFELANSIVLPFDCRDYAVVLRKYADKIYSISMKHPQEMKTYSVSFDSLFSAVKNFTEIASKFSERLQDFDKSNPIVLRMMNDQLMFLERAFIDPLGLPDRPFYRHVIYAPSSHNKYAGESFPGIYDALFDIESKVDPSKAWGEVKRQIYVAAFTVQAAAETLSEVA
Outline: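 hPSMA-Fc was captured (~1000 RU) on an Fc-binding-peptide CM5 chip, and compounds were run in single cycle kinetic mode at 25° C in HBST with 0.1% DMSO. Double-blank-corrected sensorgrams were fitted to a 1:1 Langmuir model to give KD, reported as pKD.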

[2] = molecular target: T2, PSMA-expressing C4-2 cells (Homo sapiens, UniProt Q04609); assay: FACS binding assay (competition with 50 nM PSM-0183); conditions: read-out: pIC50 [C4-2] CAT (converted)
T2 construct: PSMA-expressing C4-2 cells (ATCC, Cat. No. CRL-3314) were cultured in RPMI-1640; host or cells: C4-2 cells
T2 sequence (Q04609 whole entry): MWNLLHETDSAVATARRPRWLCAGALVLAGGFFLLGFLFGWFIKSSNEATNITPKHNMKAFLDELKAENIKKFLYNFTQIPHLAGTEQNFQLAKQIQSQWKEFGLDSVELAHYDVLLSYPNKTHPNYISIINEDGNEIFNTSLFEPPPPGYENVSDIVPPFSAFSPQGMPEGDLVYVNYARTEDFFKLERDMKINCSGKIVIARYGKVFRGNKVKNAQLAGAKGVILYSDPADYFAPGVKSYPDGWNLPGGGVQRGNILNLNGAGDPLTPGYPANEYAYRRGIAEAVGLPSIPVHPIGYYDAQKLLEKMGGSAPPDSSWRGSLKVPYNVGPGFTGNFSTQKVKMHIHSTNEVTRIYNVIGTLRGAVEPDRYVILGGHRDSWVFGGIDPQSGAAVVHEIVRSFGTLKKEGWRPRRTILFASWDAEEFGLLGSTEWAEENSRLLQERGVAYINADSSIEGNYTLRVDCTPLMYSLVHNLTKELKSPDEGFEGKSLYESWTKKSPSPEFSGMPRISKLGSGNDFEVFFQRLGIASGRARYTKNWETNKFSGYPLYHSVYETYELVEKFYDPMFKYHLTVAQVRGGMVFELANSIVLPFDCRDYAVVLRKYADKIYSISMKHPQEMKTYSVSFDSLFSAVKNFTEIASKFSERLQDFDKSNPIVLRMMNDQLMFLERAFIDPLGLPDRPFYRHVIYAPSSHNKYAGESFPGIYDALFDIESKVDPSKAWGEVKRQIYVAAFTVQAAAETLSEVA
Outline: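 C4-2 cells were incubated 1 h at 4 °C with 50 nM AF488-labelled peptide PSM-0183 plus increasing test compound concentrations, then washed twice in ice-cold buffer. Median fluorescence in the AF488 channel was read by flow cytometry. IC50/pIC50 was derived by 4PL fitting of MFI versus concentration.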

[3] = SPR, hPSMA-Fc, single cycle kinetic, 25° C., category
[4] = FACS binding, C4-2 cells, competition with 50 nM PSM-0183, category
[5] = pKD category for PSMA SPR activity assay, hPSMA-Fc, 25° C.
[6] = pIC50 category of FACS binding, C4-2 cells

Compound: C[C@@H](O)[C@H](NC(=O)[C@@H](NC(=O)[C@@H]1CSSC[C@H](NC(=O)[C@H](Cc2ccccc2)NC(=O)C(C)(C)NC(=O)CN2CCC(NC(=O)CN3CCN(CC(=O)O)CCN(CC(=O)O)CCN(CC(=O)O)CC3)CC2)C(=O)N[C@@H](CCCCN)C(=O)N[C@@H](CCCNC(=N)N)C(=O)NC(C)(C)C(=O)N[C@@H](CC(N)=O)C(=O)N1)C(C)(C)C)C(N)=O [PSM-0261, DOTA-APAc-Aib-Phe-[Cys-Lys-Arg-Aib-Asn-Cys]-Tle-Thr-NH2] ({DOTA}-[X4][Aib]FCKR[Aib]NC[Tle]T-NH2; disulfide 4-9)
Kd [1, 3]: 12.6 to 126 nM | IC50 [2, 4]: < 200 nM

Compound: CC(=O)N[C@H](C(=O)NC(C)(C)C(=O)N[C@@H](Cc1ccccc1)C(=O)N[C@H]1CSSC[C@@H](C(=O)N[C@H](C(=O)N[C@H](C(N)=O)[C@@H](C)O)C(C)(C)C)NC(=O)[C@H](CC(N)=O)NC(=O)C(C)(C)NC(=O)[C@H](CCCNC(=N)N)N(C)C(=O)[C@H](CCCCN)NC1=O)[C@@H](C)O [PSM-0235, Ac-Thr-Aib-Phe-[Cys-Lys-Nmr-Aib-Asn-Cys]-Tle-Thr-NH2] (Ac-T[Aib]FCK[NMeR][Aib]NC[Tle]T-NH2; disulfide 4-9)
Kd [1, 3]: 126 to 501 nM | IC50 [2, 4]: 200 to 1260 nM

Compound: CNCCCC[C@@H]1NC(=O)[C@@H](NC(=O)[C@H](Cc2cccc(C#N)c2)NC(=O)C(C)(C)NC(=O)[C@@H](NC(=O)CC2CCN(C(=O)CN3CCN(CC(=O)O)CCN(CC(=O)O)CCN(CC(=O)O)CC3)CC2)[C@@H](C)O)CSSC[C@@H](C(=O)N[C@H](C(N)=O)C(C)(C)C)NC(=O)[C@H](CC(N)=O)NC(=O)C(C)(C)NC(=O)[C@H](CCCNC(=N)NC)NC1=O [PSM-0459, DOTA-Cmp-Thr-Aib-Mnf-[Cys-Lys(Me)-Arg(Me)-Aib-Asn-Cys]-Tle-NH2] ({DOTA}-[X1]T[Aib][Phe(3-CN)]C[Lys(Me)][Arg(Me)][Aib]NC[Tle]-NH2; disulfide 5-10)
Kd [1, 5]: 12.6 to 126 nM | IC50 [2, 6]: 200 to 1260 nM

Compound: CC(=O)NC(C)(C)C(=O)N[C@@H](Cc1ccc(Cl)cc1)C(=O)N[C@H]1CSSC[C@@H](C(=O)N[C@H](C(=O)N[C@H](C(N)=O)[C@@H](C)O)C(C)(C)C)NC(=O)[C@H](CC(N)=O)NC(=O)[C@H](CCCCNC(=O)CN2CCC(NC(=O)CN3CCN(CC(=O)O)CCN(CC(=O)O)CCN(CC(=O)O)CC3)CC2)NC(=O)[C@H](CCCNC(=N)N)NC(=O)[C@H](CCCCN)NC1=O [PSM-0282, Ac-Aib-Pcf-[Cys-Lys-Arg-Lys(DOTA-APAc)-Asn-Cys]-Tle-Thr-NH2] (Ac-[Aib][Phe(4-Cl)]CKRK(X7)NC[Tle]T-NH2; disulfide 3-8)
Kd ([1]; PSMA SPR assay, hPSMA-Fc, 25° C., pKD category): < 12.6 nM | IC50 ([2]; FACS binding, PSMA-expressing C4-2 cells, pIC50 category): < 200 nM

More lines, now with the values ahead:

Kd ([1]; PSMA SPR assay, category): 12.6 to 126 nM | IC50 ([2]; FACS binding, C4-2 cells, category): < 200 nM
Compound: C[C@@H]1NC(=O)[C@H](CCCNC(=N)N)NC(=O)[C@H](CCCCN)NC(=O)[C@@H](NC(=O)[C@H](Cc2ccc(Cl)cc2)NC(=O)C(C)(C)NC(=O)[C@@H](NC(=O)CC2CCN(C(=O)CN3CCN(CC(=O)O)CCN(CC(=O)O)CCN(CC(=O)O)CC3)CC2)[C@@H](C)O)CSSC[C@@H](C(=O)N[C@H](C(=O)N[C@H](C(N)=O)[C@@H](C)O)C(C)(C)C)NC(=O)[C@H](CC(N)=O)N(C)C1=O [PSM-0585, DOTA-Cmp-Thr-Aib-Pcf-[Cys-Lys-Arg-Ala-Nmn-Cys]-Tle-Thr-NH2] ({DOTA}-[X1]T[Aib][Phe(4-Cl)]CKRA[NMeN]C[Tle]T-NH2; disulfide 5-10)

Kd [1, 5]: < 12.6 nM | IC50 [2, 6]: < 200 nM
Compound: CC(=O)N[C@H](C(=O)NC(C)(C)C(=O)N[C@@H](Cc1ccccc1)C(=O)N[C@H]1CSSC[C@@H](C(=O)N[C@H](C(=O)N[C@@H](Cc2ccccc2)C(N)=O)C(C)(C)C)NC(=O)[C@H](CC(N)=O)NC(=O)C(C)(C)NC(=O)[C@H](CCCNC(=N)N)NC(=O)[C@H](CCCCN)NC1=O)[C@@H](C)O [PSM-0556, Ac-Thr-Aib-Phe-[Cys-Lys-Arg-Aib-Asn-Cys]-Tle-Phe-NH2] (Ac-T[Aib]FCKR[Aib]NC[Tle]F-NH2; disulfide 4-9)

Kd [1, 5]: 12.6 to 126 nM | IC50 [2, 6]: 200 to 1260 nM
Compound: CCCC[C@H](NC(=O)[C@@H]1CSSC[C@H](NC(=O)[C@H](Cc2ccccc2)NC(=O)[C@H](C)NC(=O)[C@@H](NC(=O)CCC(=O)NCCCOCCOCCOCCCNC(=O)CN2CCN(CC(=O)O)CCN(CC(=O)O)CCN(CC(=O)O)CC2)[C@@H](C)O)C(=O)N[C@@H](CCCCN)C(=O)N[C@@H](CCCNC(=N)N)C(=O)N[C@@H](C)C(=O)N[C@@H](CC(N)=O)C(=O)N1)C(=O)N[C@H](C(=O)N[C@@H](CC(=O)O)C(N)=O)[C@@H](C)O [PSM-0504, DOTA-Ttds-Thr-Ala-Phe-[Cys-Lys-Arg-Ala-Asn-Cys]-Nle-Thr-Asp-NH2] ({X3-Suc}-TAFCKRANC[Nle]TD-NH2; disulfide 4-9)
